US20110046120A1, “TREATMENT OF IMPULSE CONTROL DISORDERS” (Mclean Hospital Corporation, priority 2006, published 2011)

Experiments:
[1] = tested on: α2 adrenoceptor; conditions: cited from earlier work; for effect on yohimbine's effects: α2 agonists, Ghitza et al, 2005, Le et al, Lee et al, 2004
[2] = tested on: reward circuitry; assay: cardiac gated fMRI BOLD imaging during cocaine infusion; assay type: in vivo, human; conditions: cocaine HCl 0.6 mg/kg infusion (max 40 mg), vs pre-infusion baseline, count out of 7 cocaine-dependent subjects
Source text: We imaged reward circuitry in humans during cocaine infusion, using cardiac gated fMRI BOLD imaging to compensate for brainstem motion. We further used a clustered volume acquisition with sharpened slice profiles to cluster the acquisition of the brainstem volume and thus reduce the effects of imaging noise on cocaine-induced euphoria and craving. Eleven right-handed men (34±7 years old) with the DSM-IV diagnosis of cocaine dependence were studied. During imaging, subjects underwent a randomized double-blind infusion of either cocaine HCl (0.6 mg/kg up to maximum dose of 40 mg) or saline. Subjects were scanned on an Instascan device (1.5 T General Electric Signa; modified by Advanced NMR Systems, Wilmington, Mass.) using a head coil (General Electric). […] Automated shimming with second order shims was performed to improve Bo field homogeneity. Functional scans utilized cardiac gating with an asymmetric spin echo, T2*-weighted CVA (TR=6 RR, three slices per each of the first two RRs; TE=70; offset=−25 ms; 128×64 matrix; thickness=3.12×3.12 mm, through-plane resolution=7 mm; 200 images/slice). […] Seven matched sets of cocaine and saline infusion scans were interpretable after motion-correction. Statistical maps were constructed using Kolmogorov-Smirnov (KS) statistics and thresholded at the corrected p value for brain regions sampled, p<10-5. […]

[3] = tested on: cocaine-dependent individuals; assay: self-rated subjective responses after intravenous cortisol, cocaine and saline in cocaine dependence; assay type: in vivo, human
Procedure: To assess cocaine/stress cross-sensitization, 12 cocaine-dependent individuals (age: 39.8±3.5 years) were administered cortisol (0.2 and 0.5 mg/kg), along with cocaine (0.2 mg/kg) and saline via intravenous boluses, in a double-blind, counterbalanced fashion. The individualized description of subjective responses were categorized into four components: craving, high, rush, and low, which were self-rated on a computerized continuous scale of 0 (none) to 3 (extreme) each minute for two minutes prior and 20 minutes following each infusion. Cocaine craving was proactively defined with the subject, clinically as an urge to use the drug and operationally in terms of the action the individual wanted to engage in to get cocaine. The ratings for high (well-being, self-confidence, and sociability), rush (perception of elevated heart rate and sweating, along with sensations of ‘speeding’), and low (dysphoric affect distinct from the high experience diminishment) were subjectively defined and not necessarily associated with a behavioral response or with the planning of physical activity. […] Cocaine elevated measures of craving (p<0.001); high (p<0.02); rush (p<10-4); and low (p=0.05). Saline produced no significant ratings changes.

[4] = tested on: reward circuitry; assay: fMRI with cardiac gating during low-dose morphine infusions
Procedure: Normal human reward circuitry was studied during low-dose morphine infusions using fMRI with cardiac gating in an unblinded study. […] Morphine and saline infusions were counter-balanced across subjects, and segregated in separate scan sessions 7 days apart. Four 2 mL infusions were given over 8 minutes, with each infusion lasting 20 seconds. The onset of each infusion was separated by a 2-minute interval. The total morphine dose divided evenly over the 4 infusions was 4 mg/70 kg. Respiratory rate, heart rate, O2 saturation, and end-tidal carbon dioxide concentration in the expired air (ETCO2) were monitored during the experiment in each individual for safety. Subjects were asked to rate their subjective high on a 10-point hedonic rating scale (0=no high; 10=max. high imaginable).

[5] = Guthrie et al, 1990; cited from earlier work
[6] = tested on: NAc and other stress-associated regions; assay: monetary reward task with fMRI in PG subjects given yohimbine; assay type: in vivo, human; conditions: vs PG subjects given saline and normal controls
Procedure: During the gambling paradigm, subjects participated in a game of chance where they actually won or lost money while in the fMRI scanner. Signal changes that anticipate or accompany monetary gains and losses under varying conditions of controlled expectation were evaluated. Specifically, evaluated were: a) an “expectancy phase”, when a promising or unpromising roulette-like spinner (FIG. 4) is presented and b) an “outcome phase” when the arrow lands on one sector of that spinner, and thereby alters the subjects' winnings. It is known that, when applied to healthy controls, this task differentiates the fMRI time courses in the NAc, mPFC and SLEA and in related regions during expectancy vs. outcome phases.
At the start of the game, each subject was given an endowment of $50 and was told that (s)he might lose some or all of this stake, retain it or increase it. Each trial consisted of a “prospect phase”, when a spinner was presented and an “outcome phase” when a sector of the spinner was selected by the arrow and a corresponding amount was added to or subtracted from the subjects' winnings. […] The display was static for the first 0.5 second and then a superimposed arrow began to rotate. […] Only results of the last 18 trials were scored for each run since the initial trial was inserted into the run sequence purely to maintain counterbalancing. […]

[7] = tested on: healthy subjects and neuropsychiatric patients; conditions: cited from earlier work
[8] = morphine 4 mg/70 kg total, 5 subjects

SMILES: CCS(=O)(=O)N1CCC[C@@H]2CN3CCc4cc(OC)ccc4[C@@H]3C[C@@H]21.Cl [RS-79948-197]
- reproduction of yohimbine's effects ([1]; selective α2 adrenoceptor antagonist, literature): replication of these effects

SMILES: Clc1cccc(Cl)c1N=C1NCCN1 [clonidine]
- effect on yohimbine's effects [1]: blockade of yohimbine's effects

SMILES: COC(=O)[C@H]1[C@@H](OC(=O)c2ccccc2)C[C@@H]2CC[C@H]1N2C [cocaine]
- subjects with focal positive fMRI signal changes in the right NAc, amygdala, and mPFC [2]: ≥ 5

SMILES: C[C@]12CCC(=O)C=C1CC[C@@H]1[C@@H]2[C@@H](O)C[C@@]2(C)[C@H]1CC[C@]2(O)C(=O)CO [cortisol]
- craving self-rating, time effect ([3]; cortisol 0.2 and 0.5 mg/kg iv bolus, F=3.11, p<0.001): significant increases in craving
- craving self-rating, dose effect ([3]; cortisol 0.2 vs 0.5 mg/kg iv, F=0.06, p=0.81): no dose effect

SMILES: CC(Oc1c(Cl)cccc1Cl)C1=NCCN1 (stereo not shown) [lofexidine]
- effect on yohimbine's effects [1]: blockade of yohimbine's effects

SMILES: CN1CC[C@]23c4c5ccc(O)c4O[C@H]2[C@@H](O)C=C[C@H]3[C@H]1C5 [morphine]
- adverse side-effects ([4]; morphine 4 mg/70 kg total over 4 infusions, drug naive male subjects): No adverse side-effects
- fMRI activation in bilateral NAc and mPFC [4, 8]: significant focal activations
- fMRI activation in the amygdala [4, 8]: subthreshold activation
- subjective state (hedonic rating) ([4]; morphine 4 mg/70 kg total, data not shown): mild euphoria
- fMRI activation in the VT ([4]; morphine 4 mg/70 kg total, with cardiac gating): left VT activation

SMILES: COC(=O)[C@@H]1[C@H]2C[C@H]3c4[nH]c5ccccc5c4CCN3C[C@@H]2CC[C@@H]1O [yohimbine]
- half-life [5]: about 45 minutes
- brain activity in the NAc and other stress-associated regions [6]: significantly elevated levels of brain activity
- tolerability ([7]; yohimbine 0.125 mg/kg to 0.4 mg/kg intravenous): generally well tolerated
- reported adverse effects in clinical trials ([7]; yohimbine clinical trials): elevated blood pressure and heart rate, psychomotor agitation, irritability, tremor, headaches, skin flushing, dizziness, urinary frequency, nausea, vomiting and perspiration
- PET brain activity in PTSD subjects ([7]; yohimbine infusions 0.4 mg/kg, ten PTSD subjects vs matched healthy controls, associated with increased anxiety self-reports): deactivations in prefrontal, temporal, parietal, and orbitofrontal cortexes
